Assay results: patent US12582654B2, “Cyano-substituted pyridine and cyano-substituted pyrimidine compound and preparation method therefor and application thereof” (BEIJING SCITECH-MQ PHARMACEUTICALS LIMITED, priority 2019, dated 2026)

Columns and labels:
FGFR4 kinase = FGFR4 kinase (Homo sapiens, UniProt P22455); test: Inhibition of FGFR4 kinase activity (ULight-labeled JAK-1 peptide, EU665/EU615 reading); assay type: biochemical; details: FGFR4 kinase 3.85 nM, ATP 100 μM, enzymatic reaction 2 hours
Chain of FGFR4 kinase (P22455 22-802): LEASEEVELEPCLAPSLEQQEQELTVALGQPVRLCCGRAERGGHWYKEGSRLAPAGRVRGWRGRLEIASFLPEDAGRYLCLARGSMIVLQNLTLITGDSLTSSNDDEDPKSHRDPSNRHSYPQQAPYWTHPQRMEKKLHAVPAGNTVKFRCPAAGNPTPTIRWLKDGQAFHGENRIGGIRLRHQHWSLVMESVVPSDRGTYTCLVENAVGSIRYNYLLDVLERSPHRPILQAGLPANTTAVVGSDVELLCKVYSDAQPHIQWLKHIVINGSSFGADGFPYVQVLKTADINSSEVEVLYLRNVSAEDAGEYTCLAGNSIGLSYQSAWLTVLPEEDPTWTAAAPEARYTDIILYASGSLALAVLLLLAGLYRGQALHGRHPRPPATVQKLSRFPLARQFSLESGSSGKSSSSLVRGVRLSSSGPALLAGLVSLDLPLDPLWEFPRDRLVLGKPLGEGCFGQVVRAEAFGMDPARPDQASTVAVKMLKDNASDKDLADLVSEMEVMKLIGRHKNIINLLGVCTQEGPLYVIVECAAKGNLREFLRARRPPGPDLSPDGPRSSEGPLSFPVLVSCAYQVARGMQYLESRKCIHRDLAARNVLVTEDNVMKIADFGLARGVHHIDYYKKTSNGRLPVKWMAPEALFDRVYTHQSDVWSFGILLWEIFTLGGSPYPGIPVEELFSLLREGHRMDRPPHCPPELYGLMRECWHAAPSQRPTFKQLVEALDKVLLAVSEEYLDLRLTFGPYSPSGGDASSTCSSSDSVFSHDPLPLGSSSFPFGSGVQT
Method in brief: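 TR-FRET kinase assay using 3.85 nM FGFR4, 100 μM ATP and 100 nM ULight-JAK-1 (Tyr1023) peptide; 5 min enzyme–compound preincubation, then 2 h at room temperature. Compounds at 11 3-fold dilutions from 2.5 μM down to 0.042 nM, 1% DMSO. IC50 from EU665/EU615 ratio inhibition curves.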

FGFR4 V550L kinase = FGFR4 V550L kinase (Homo sapiens, UniProt P22455, V550L); test: Inhibition of FGFR4 V550L mutant kinase activity (ULight-labeled PolyGT, EU665/EU615 reading); assay type: biochemical; details: FGFR4 V550L kinase 1 nM, ATP 10 μM, enzymatic reaction 2 hours
Chain of FGFR4 V550L kinase (P22455 22-802 V550L): as the sequence (P22455 22-802) above, with V529L counted along it
Method in brief: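 TR-FRET kinase assay: 1 nM FGFR4 V550L, 10 μM ATP, 100 nM ULight-PolyGT substrate, 2 h at room temperature after 5 min compound–enzyme preincubation, 1% DMSO. Compound tested as 11-point 3-fold dilution from 2.5 μM to 0.042 nM final. Signal as EU665/EU615 ratio; IC50 fitted from % inhibition.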

Ba/F3 ETV6-FGFR4 cells = target: T1, Ba/F3 ETV6-FGFR4 cells (Homo sapiens, UniProt P22455); test: Inhibition of cell proliferation (CCK-8), Ba/F3 ETV6-FGFR4 cells; assay type: cell-based; details: 72 hours of incubation, read-out: Ba/F3 ETV6-FGFR4 IC50
T1 construct: fused on or other part: N-terminal part of ETV6 (TEL), the oligomerising partner that makes the FGFR4 kinase constitutively active; P41212 (Transcription factor ETV6)
T1 sequence (P22455 whole entry, change not shown, the tested form may be a part): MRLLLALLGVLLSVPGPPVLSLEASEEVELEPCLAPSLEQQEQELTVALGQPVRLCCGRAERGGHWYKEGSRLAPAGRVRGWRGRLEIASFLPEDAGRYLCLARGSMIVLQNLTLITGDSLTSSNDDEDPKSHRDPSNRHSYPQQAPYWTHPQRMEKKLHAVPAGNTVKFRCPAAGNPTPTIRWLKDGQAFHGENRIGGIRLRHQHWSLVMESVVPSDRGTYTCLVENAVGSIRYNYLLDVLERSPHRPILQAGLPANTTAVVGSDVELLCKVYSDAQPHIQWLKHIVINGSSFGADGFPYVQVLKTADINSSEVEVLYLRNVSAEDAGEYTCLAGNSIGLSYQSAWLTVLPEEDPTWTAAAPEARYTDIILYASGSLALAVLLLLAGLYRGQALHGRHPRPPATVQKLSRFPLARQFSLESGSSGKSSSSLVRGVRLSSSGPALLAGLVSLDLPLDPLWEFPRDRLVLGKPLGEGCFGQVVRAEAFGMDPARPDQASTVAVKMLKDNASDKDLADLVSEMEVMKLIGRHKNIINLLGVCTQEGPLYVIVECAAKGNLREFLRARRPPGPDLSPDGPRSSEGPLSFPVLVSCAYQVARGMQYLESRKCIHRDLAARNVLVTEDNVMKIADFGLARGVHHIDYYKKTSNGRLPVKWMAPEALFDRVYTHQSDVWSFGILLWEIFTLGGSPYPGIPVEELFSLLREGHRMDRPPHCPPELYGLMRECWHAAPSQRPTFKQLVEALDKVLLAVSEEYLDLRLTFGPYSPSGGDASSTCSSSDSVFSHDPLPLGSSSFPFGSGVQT
Method in brief: (§1)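 Ba/F3 cells expressing ETV6-FGFR4 or ETV6-FGFR4-V550L exposed for 72 h to 9 concentrations from 4-fold serial dilution (0.25% DMSO final). Viability by CCK-8, OD 450 nm after 1–2 h at 37 °C, relative to untreated and cell-free blanks; IC50 from curve fitting.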

[1] = target: T2, Ba/F3 ETV6-FGFR4-V550L cells (Homo sapiens, UniProt P22455, V550L, cells depend on it); test: Inhibition of cell proliferation (CCK-8), Ba/F3 ETV6-FGFR4-V550L cells; assay type: cell-based; details: 72 hours of incubation, read-out: Ba/F3 ETV6-FGFR4-V550L IC50
T2 construct: fused on or other part: N-terminal part of ETV6 (TEL), the oligomerising partner of the fusion; already named as the first entry; P41212 (Transcription factor ETV6)
T2 sequence (P22455 whole entry V550L, the tested form may be a part): as the sequence (P22455 whole entry, change not shown, the tested form may be a part) above, with V550L counted along it
Method in brief: as §1

| IC50 (FGFR4 kinase) | IC50 (FGFR4 V550L kinase) | GI50 (Ba/F3 ETV6-FGFR4 cells) | GI50 [1] | Structure (SMILES) |
| --- | --- | --- | --- | --- |
| 0.01 to 0.05 µM | 0.01 to 0.05 µM | ≤ 0.01 µM | ≤ 0.01 µM | C=CC(=O)Nc1cc(N2CCC(N3CCN(C)CC3=O)CC2)ccc1Nc1ncc(C#N)c(Nc2ccc(F)cc2OC(C)C)n1 [Example 47, N-(2-((5-cyano-4-((4-fluoro-2-isopropoxyphenyl)amino)pyrimidin-2-yl)amino)-5-(4-(4-methyl-2-oxopiperazin-1-yl)piperidin-1-yl)phenyl) acrylamide] |
| 0.01 to 0.05 µM | ≤ 0.01 µM | 0.1 to 1 µM | 0.1 to 1 µM | C=CC(=O)Nc1cc(N2CCC(N3CCN(C)CC3)CC2)ccc1Nc1ncc(C#N)c(Nc2ccc(C(N)=O)cc2OC(C)C)n1 [Example 41, 4-((2-((2-acrylamido-4-(4-(4-methylpiperazin-1-yl)piperidin-1-yl)phenyl)amino)-5-cyanopyrimidin-4-yl)amino)-3-isopropoxybenzamide] |
| 0.05 to 0.1 µM | ≤ 0.01 µM | ≤ 0.01 µM | ≤ 0.01 µM | C=CC(=O)Nc1cc(N2CCC(N3CCN(C)CC3)CC2)c(OC)cc1Nc1ncc(C#N)c(Nc2ccccc2OC(C)C)n1 [Example 53, N-(2-((5-cyano-4-((2-isopropoxyphenyl)amino)pyrimidin-2-yl)amino)-4-methoxy-5-(4-(4-methylpiperazin-1-yl)piperidin-1-yl)phenyl) acrylamide] |
| ≤ 0.01 µM | ≤ 0.01 µM | ≤ 0.01 µM | ≤ 0.01 µM | C=CC(=O)Nc1cc(N2CCC(N3CCN(C)CC3)CC2)ccc1Nc1ncc(C#N)c(Nc2ccccc2SC(C)C)n1 [Example 81] |
| ≤ 0.01 µM | 0.01 to 0.05 µM | ≤ 0.01 µM | ≤ 0.01 µM | C=CC(=O)Nc1cc(N2CCN(CC)CC2)ccc1Nc1ncc(C#N)c(Nc2ccc(OC)cc2OC(C)C)n1 [Example 31, N-(2-((5-cyano-4-((2-isopropoxy-4-methoxyphenyl)amino)pyrimidin-2-yl)amino)-5-(4-ethylpiperazin-1-yl)phenyl) acrylamide] |
| 0.01 to 0.05 µM | 0.01 to 0.05 µM | ≤ 0.01 µM | ≤ 0.01 µM | C=CC(=O)Nc1cc(N2CCC(N3CCCCC3)CC2)c(F)cc1Nc1ncc(C#N)c(Nc2ccccc2OC(C)C)n1 [Example 18, N-(5-([1,4‘- bipiperidin]-1′-yl)-2-((5-cyano-4-((2-isopropoxyphenyl)amino)pyrimidin-2-yl)amino)-4-fluorophenyl) acrylamide] |
| 0.01 to 0.05 µM | 0.01 to 0.05 µM | ≤ 0.01 µM | 0.01 to 0.05 µM | C=CC(=O)Nc1cc(N2CCC(N3CCN(C)CC3)CC2)c(C)cc1Nc1ncc(C#N)c(Nc2ccccc2OC(C)C)n1 [Example 13, N-(2-((5-cyano-4-((2-isopropoxyphenyl)amino)pyrimidin-2-yl)amino)-4-methyl-5-(4-(4-methylpiperazin-1-yl)piperidin-1-yl)phenyl) acrylamide] |
| 0.01 to 0.05 µM | ≤ 0.01 µM | ≤ 0.01 µM | ≤ 0.01 µM | C=CC(=O)Nc1cc(N2CCC(N(C)CCF)CC2)ccc1Nc1ncc(C#N)c(Nc2ccccc2OC(C)C)n1 [Example 61, N-(2-((5-cyano-4-((2-isopropoxyphenyl)amino)pyrimidin-2-yl)amino)-5-(4-((2-fluoroethyl) (methyl)amino)piperidin-1-yl)phenyl) acrylamide] |
| 0.05 to 0.1 µM | 0.01 to 0.05 µM | ≤ 0.01 µM | ≤ 0.01 µM | C=CC(=O)Nc1cc(N2CCC(N3CCOCC3)CC2)ccc1Nc1ncc(C#N)c(Nc2ccccc2OC(C)C)n1 [Example 5, N-(2-((5-cyano-4-((2-isopropoxyphenyl)amino)pyrimidin-2-yl)amino)-5-(4-morpholinopiperidin-1-yl)phenyl) acrylamide] |
| ≤ 0.01 µM | ≤ 0.01 µM | ≤ 0.01 µM | ≤ 0.01 µM | C=CC(=O)Nc1cc(N2CCN(C(C)C)CC2)ccc1Nc1ncc(C#N)c(Nc2ccccc2OC(C)C)n1 [Example 37, N-(2-((5-cyano-4-((2-isopropoxyphenyl)amino)pyrimidin-2-yl)amino)-5-(4-isopropylpiperazin-1-yl)phenyl) acrylamide] |

The next lines start with the compound.

| Structure (SMILES) | IC50 (FGFR4 kinase) | IC50 (FGFR4 V550L kinase) | GI50 (Ba/F3 ETV6-FGFR4 cells) | GI50 [1] |
| --- | --- | --- | --- | --- |
| C=CC(=O)Nc1cc(N2CCN(CC)CC2)ccc1Nc1ncc(C#N)c(Nc2cc(C)ccc2OC(C)C)n1 [Example 24, N-(2-((5-cyano-4-((2-isopropoxy-5-methylphenyl)amino)pyrimidin-2-yl)amino)-5-(4-ethylpiperazin-1-yl)phenyl) acrylamide] | 0.01 to 0.05 µM | 0.01 to 0.05 µM | 0.01 to 0.05 µM | ≤ 0.01 µM |
| C=CC(=O)Nc1cc(N2CCC(N(C)CCCS(C)(=O)=O)CC2)ccc1Nc1ncc(C#N)c(Nc2ccccc2OC(C)C)n1 [Example 75, N-(2-((5-cyano-4-((2-isopropoxyphenyl)amino)pyrimidin-2-yl)amino)-5-(4-(methyl(3-(methylsulfonyl)propyl)amino)piperidin-1-yl)phenyl) acrylamide] | ≤ 0.01 µM | ≤ 0.01 µM | ≤ 0.01 µM | ≤ 0.01 µM |
| C=CC(=O)Nc1cc(N2CCC(N3CCC(F)CC3)CC2)ccc1Nc1ncc(C#N)c(Nc2ccccc2OC(C)C)n1 [Example 64, N-(2-((5-cyano-4-((2-isopropoxyphenyl)amino)pyrimidin-2-yl)amino)-5-(4-fluoro-[1,4-bipiperidin]-1‘- yl)phenyl) acrylamide] | 0.01 to 0.05 µM | 0.01 to 0.05 µM | ≤ 0.01 µM | ≤ 0.01 µM |
| C=CC(=O)Nc1cc(N2CCC(N(C)C3COC3)CC2)ccc1Nc1ncc(C#N)c(Nc2ccccc2OC(C)C)n1 [Example 72, N-(2-((5-cyano-4-((2-isopropoxyphenyl)amino)pyrimidin-2-yl)amino)-5-(4-(methyl(oxetan-3-yl)amino)piperidin-1-yl)phenyl) acrylamide] | ≤ 0.01 µM | 0.01 to 0.05 µM | ≤ 0.01 µM | ≤ 0.01 µM |
| C=CC(=O)Nc1cc(N2CCC(N3CCN(C)CC3=O)CC2)ccc1Nc1ncc(C#N)c(Nc2ccccc2OC(C)C)n1 [Example 46, N-(2-((5-cyano-4-((2-isopropoxyphenyl)amino)pyrimidin-2-yl)amino)-5-(4-(4-methyl-2-oxopiperazin-1-yl)piperidin-1-yl)phenyl) acrylamide] | 0.01 to 0.05 µM | 0.01 to 0.05 µM | ≤ 0.01 µM | ≤ 0.01 µM |
| C=CC(=O)Nc1cc(N2CCN(C)CC2)c(F)cc1Nc1ncc(C#N)c(Nc2ccccc2OC(C)C)n1 [Example 14, N-(2-((5-cyano-4-((2-isopropoxyphenyl)amino)pyrimidin-2-yl)amino)-4-fluoro-5-(4-methylpiperazin-1-yl)phenyl) acrylamide] | 0.05 to 0.1 µM | 0.01 to 0.05 µM | ≤ 0.01 µM | ≤ 0.01 µM |
| C=CC(=O)Nc1cc(N2CCN(CC)CC2)ccc1Nc1ncc(C#N)c(Nc2ccc(OCCOC)cc2OC(C)C)n1 [Example 33, N-(2-((5-cyano-4-((2-isopropoxy-4-(2-methoxyethoxy)phenyl)amino)pyrimidin-2-yl)amino)-5-(4-ethylpiperazin-1-yl)phenyl) acrylamide] | ≤ 0.01 µM | 0.01 to 0.05 µM | ≤ 0.01 µM | ≤ 0.01 µM |
| C=CC(=O)Nc1cc(N2CCC(N3CCN(S(C)(=O)=O)CC3)CC2)ccc1Nc1ncc(C#N)c(Nc2ccccc2OC(C)C)n1 [Example 51, N-(2-((5-cyano-4-((2-isopropoxyphenyl)amino)pyrimidin-2-yl)amino)-5-(4-(4-(methylsulfonyl)piperazin-1-yl)piperidin-1-yl)phenyl) acrylamide] | 0.1 to 1 µM | 0.01 to 0.05 µM | ≤ 0.01 µM | ≤ 0.01 µM |
